Here are results for 37 compounds from patent US20060063759A1, “Tricyclic steroid hormone nuclear receptor modulators” (priority 2002, published 2006).

The target of one assay is T1, glucocorticoid receptor (Homo sapiens, UniProt P04150).
T1 construct: containing 50-200 ug of A549 cell extract and 1.86 nM [^3H]-dexamethasone; host or cells: A549 human lung epithelial cells (sonicated cell extract)
T1 sequence (P04150 1-777): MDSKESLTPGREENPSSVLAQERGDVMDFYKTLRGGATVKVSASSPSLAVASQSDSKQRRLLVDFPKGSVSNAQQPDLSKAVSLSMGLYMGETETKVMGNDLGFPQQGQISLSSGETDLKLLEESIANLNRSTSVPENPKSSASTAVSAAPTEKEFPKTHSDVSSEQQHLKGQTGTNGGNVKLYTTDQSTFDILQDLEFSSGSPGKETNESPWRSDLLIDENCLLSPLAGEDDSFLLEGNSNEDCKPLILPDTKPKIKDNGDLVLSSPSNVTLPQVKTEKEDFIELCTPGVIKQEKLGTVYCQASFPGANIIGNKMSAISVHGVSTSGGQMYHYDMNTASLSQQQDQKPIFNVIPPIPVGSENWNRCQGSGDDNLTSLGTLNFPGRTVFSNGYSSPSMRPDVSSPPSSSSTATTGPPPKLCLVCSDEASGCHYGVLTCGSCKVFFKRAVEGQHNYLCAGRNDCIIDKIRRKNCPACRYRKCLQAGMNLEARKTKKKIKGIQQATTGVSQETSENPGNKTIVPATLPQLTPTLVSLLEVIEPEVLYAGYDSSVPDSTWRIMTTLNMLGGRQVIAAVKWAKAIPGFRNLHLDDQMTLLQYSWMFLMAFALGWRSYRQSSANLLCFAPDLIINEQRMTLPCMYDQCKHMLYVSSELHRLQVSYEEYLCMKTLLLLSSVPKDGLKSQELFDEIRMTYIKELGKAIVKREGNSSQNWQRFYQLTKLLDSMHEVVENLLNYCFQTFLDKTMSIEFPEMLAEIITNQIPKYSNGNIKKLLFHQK
Put plainly: Glucocorticoid Receptor Binding Assay ([3H]-dexamethasone, A549 cell extract). The following applies: [3H]-dexamethasone binding, read-out: GR Ki. The procedure, abridged:
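Displacement of [3H]-dexamethasone (1.86 nM) from glucocorticoid receptor in sonicated A549 lung epithelial cell extracts, 16 h at 4 °C, pH 7.2 molybdate-containing buffer. Bound radioactivity was scintillation-counted after charcoal/dextran stripping of free ligand.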

The next assay addresses T2, human MR (Homo sapiens, UniProt P08235).
T2 construct: The full length human MR gene is cloned from a human kidney or human brain cDNA library; His tag from the pAcHLT vector (own knowledge); made in house; host or cells: Sf9 insect cells (baculovirus, pAcHLT transfer vector)
T2 sequence (P08235 1-984): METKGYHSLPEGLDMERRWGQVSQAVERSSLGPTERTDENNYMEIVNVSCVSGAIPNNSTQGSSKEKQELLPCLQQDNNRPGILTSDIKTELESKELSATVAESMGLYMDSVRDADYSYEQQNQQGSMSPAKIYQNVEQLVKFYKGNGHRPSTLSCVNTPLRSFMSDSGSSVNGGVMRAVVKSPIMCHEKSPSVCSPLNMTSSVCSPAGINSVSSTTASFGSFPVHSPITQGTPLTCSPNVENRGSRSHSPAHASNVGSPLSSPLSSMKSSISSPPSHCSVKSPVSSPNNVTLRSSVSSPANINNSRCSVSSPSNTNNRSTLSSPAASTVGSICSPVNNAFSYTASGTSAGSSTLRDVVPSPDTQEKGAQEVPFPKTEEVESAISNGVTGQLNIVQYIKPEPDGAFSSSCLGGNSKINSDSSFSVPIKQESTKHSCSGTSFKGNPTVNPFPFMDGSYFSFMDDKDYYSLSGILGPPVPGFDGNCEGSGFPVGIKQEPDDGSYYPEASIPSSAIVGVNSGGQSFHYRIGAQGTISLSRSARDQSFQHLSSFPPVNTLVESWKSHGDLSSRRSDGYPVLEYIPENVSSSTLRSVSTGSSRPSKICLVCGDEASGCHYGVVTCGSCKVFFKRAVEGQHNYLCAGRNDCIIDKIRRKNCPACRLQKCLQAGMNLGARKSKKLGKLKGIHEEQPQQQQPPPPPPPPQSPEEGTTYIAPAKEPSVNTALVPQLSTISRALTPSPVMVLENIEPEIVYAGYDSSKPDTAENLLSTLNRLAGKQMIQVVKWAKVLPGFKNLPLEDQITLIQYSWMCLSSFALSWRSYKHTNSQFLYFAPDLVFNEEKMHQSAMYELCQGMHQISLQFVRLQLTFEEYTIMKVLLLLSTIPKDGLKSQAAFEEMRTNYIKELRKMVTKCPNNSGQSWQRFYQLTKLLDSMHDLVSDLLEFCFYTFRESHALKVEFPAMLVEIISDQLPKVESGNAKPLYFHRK
Put plainly: Mineralocorticoid Receptor Binding Assay ([3H]-aldosterone). As to conditions: [3H]-aldosterone binding, human MR expressed in Sf9 cells; read-out: MR Ki. Summed up:
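Receptor source: freeze-thaw lysate of baculovirus-infected Sf9 cells carrying full-length human MR, 20-25 μg protein. Incubation ~16 h at 4 °C with shaking, pH 7.5 buffer containing 30 mM sodium molybdate and 10% glycerol.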

Bounds are passed on as bounds.

As for `CSc1ccc2c(c1)C(=Cc1cccc(NS(C)(=O)=O)c1)c1ccccc1CC2` [Example 320], the Ki at glucocorticoid receptor and on human MR was less than 500 nM in each case.
For `CC(C)n1c(=O)[nH]c2cc(C=C3c4ccc(F)cc4CCc4cc(F)ccc43)ccc21` [Example 464], the Ki on glucocorticoid receptor is less than 10000 nM; at human MR, less than 500 nM.
Regarding `CS(=O)(=O)Nc1cccc(C(=C2c3ccccc3CCc3ccccc32)c2ccccc2)c1` [Example 762], the Ki on glucocorticoid receptor and at human MR was less than 500 nM each time.
Take `Oc1cccc(/C=C2\c3ccccc3COc3cc(F)ccc32)c1` [Example 628]: the Ki on glucocorticoid receptor and at human MR was less than 500 nM throughout.
For `CS(=O)(=O)Nc1cccc(/C=C2/c3ccccc3CCc3cccc(Cl)c32)c1` [Example 366], the Ki at glucocorticoid receptor and on human MR was less than 500 nM throughout.
As for `COc1cccc2c1COc1ccccc1[C@H]2Cc1cccc(NS(C)(=O)=O)c1` [Example 733], the Ki at glucocorticoid receptor and at human MR was less than 500 nM each time.
As for `Cc1cccc2c1CCc1ccccc1/C2=C\c1cccc(NS(C)(=O)=O)c1` [Example 312], the inhibition constant (Ki) on glucocorticoid receptor and at human MR was less than 500 nM each time.
On to `O=c1[nH]c2ccc(/C=C3/c4ccc(F)cc4CCc4ncccc43)cc2[nH]1` [Example 518], for which the Ki on glucocorticoid receptor and on human MR was less than 500 nM throughout.
Turning to `Nc1cccc(C=C2c3ccccc3CCc3sccc32)c1` [Example 477, 3-(9,10-Dihydro-1-thia-benzo[f]azulen-4-ylidenemethyl)-phenylamine], the values for the Ki at glucocorticoid receptor and on human MR were less than 10000 nM and less than 500 nM, respectively.
Take `CS(=O)(=O)Nc1ccc(C=C2c3ccccc3CCc3c(Cl)cccc32)cc1` (mixture of isomers) [Example 210, N-[4-(1-Chloro-10,11-dihydro-dibenzo[a,d]cyclohepten-5ylidenemethyl)-phenyl]-methanesulfonamide]: the values for the Ki on glucocorticoid receptor and on human MR were less than 1000 nM and less than 500 nM, respectively.
In the case of `N#Cc1ccc2c(n1)CCc1cc(F)ccc1/C2=C\c1ccc2[nH]c(=O)[nH]c2c1` [Example 591], the Ki at glucocorticoid receptor was less than 10000 nM; at human MR, less than 500 nM.
For `O=Cc1cccc2c1CCc1ccccc1/C2=C\c1cccc(O)c1` [Example 378] the same measures were less than 1000 nM and less than 500 nM.
`CC(C)n1c(=O)[nH]c2cc(/C=C3/c4ccccc4COc4cc(F)ccc43)ccc21` [Example 638]: the Ki on glucocorticoid receptor was less than 1000 nM; at human MR, less than 500 nM.
Consider `CC(=C1c2ccccc2CCc2ccccc21)c1cccc(N)c1` [Example 761], for which the Ki at glucocorticoid receptor and at human MR was less than 500 nM throughout.
With `COc1cc(F)cc(C=C2c3ccccc3CCc3ccccc32)c1` [Example 154, 5-(3-Fluoro-5-methoxy-benzylidene)-10,11-dihydro-5H-dibenzo[a,d]cycloheptene], the Ki on glucocorticoid receptor is less than 1000 nM; at human MR, less than 500 nM.
With `CC(=C1c2ccccc2CCc2cc(C)ccc21)c1cccc(NS(C)(=O)=O)c1` [Example 773], the Ki on glucocorticoid receptor and on human MR was less than 500 nM in each case.
On to `CC/C(=C1/c2ccccc2COc2ccccc21)c1cccc(NS(C)(=O)=O)c1` [Example 800], for which the Ki at glucocorticoid receptor and at human MR was less than 500 nM each time.
Turning to `CC(C)n1c(=O)[nH]c2cc(/C=C3\c4ccc(F)cc4CCc4ncccc43)ccc21` [Example 592], the Ki on glucocorticoid receptor was less than 10000 nM; at human MR, less than 500 nM.
In the same order, the values of `Cc1ccc2c(c1)CSc1ccccc1C2=Cc1cccc(NS(C)(=O)=O)c1` [Example 740] are less than 500 nM and less than 500 nM.
With `CS(=O)(=O)Nc1cccc(/C=C2\c3ccccc3CCc3cc(C(F)F)ccc32)c1` [Example 375], the Ki on glucocorticoid receptor and on human MR was less than 500 nM throughout.
As to `COC(=O)c1ccccc1/C=C1\c2ccc(F)cc2CCc2ncccc21` [Example 588], the inhibition constant (Ki) at glucocorticoid receptor and at human MR was less than 500 nM in each case.
As for `CSc1ccc2c(c1)/C(=C\c1cccc(NS(C)(=O)=O)c1)c1ccccc1CC2` [Example 322], the inhibition constant (Ki) on glucocorticoid receptor and on human MR was less than 500 nM throughout.
As to `Oc1cc(O)cc(C=C2c3ccccc3CCc3ccccc32)c1` [Example 54, 5-(10,11-Dihydro-dibenzo[a,d]cyclohepten-5-ylidenemethyl)-benzene-1,3-diol], the Ki on glucocorticoid receptor and at human MR was less than 500 nM in each case.
For `CCC(=C1c2ccccc2CCc2ccccc21)c1cccc(N)c1` [Example 760], the Ki on glucocorticoid receptor was less than 10000 nM; at human MR, less than 500 nM.
Consider `NC(=O)Nc1ccc(C=C2c3ccccc3CCc3ccccc32)cc1` [Example 129, [4-(10,11-Dihydro-dibenzo[a,d]cyclohepten-5-ylidenemethyl)-phenyl]-urea], for which the Ki on glucocorticoid receptor and at human MR was less than 500 nM each time.
On to `COc1ccc2c(c1)/C(=C/c1cccc(NS(C)(=O)=O)c1)c1ccccc1CC2` [Example 347], for which the Ki at glucocorticoid receptor and at human MR was less than 500 nM throughout.
For the compound `Cn1c(=O)[nH]c2cc(/C=C3\c4ccccc4CCc4cc(F)ccc43)ccc21` [Example 462], the values for the Ki at glucocorticoid receptor and at human MR were less than 1000 nM and less than 500 nM, respectively.
In the case of `CC(=O)Nc1cccc2c1CCc1ccccc1C2=Cc1cccc(NS(C)(=O)=O)c1` [Example 406], the Ki at glucocorticoid receptor and at human MR was less than 500 nM in each case.
On to `CS(=O)(=O)Nc1cccc(/C=C2/c3ccccc3CCc3c(N)cccc32)c1` [Example 410], for which the inhibition constant (Ki) on glucocorticoid receptor and at human MR was less than 500 nM in each case.
Regarding `Nc1cccc(/C=C2/c3ccc(F)cc3CCc3ncccc32)c1` [Example 533], the Ki at glucocorticoid receptor is less than 1000 nM; on human MR, less than 500 nM.
On to `C/C(=C1\c2ccc(F)cc2COc2cc(F)ccc21)c1cccc(NS(C)(=O)=O)c1` [Example 810], for which the Ki at glucocorticoid receptor and at human MR was less than 500 nM in each case.
With `Fc1ccc2c(c1)CCc1ncccc1/C2=C\c1ccc(C(F)F)cc1` [Example 544], the Ki is less than 1000 nM on glucocorticoid receptor and less than 500 nM at human MR.
For `COc1ccc2c(c1)CCc1cc(C)ccc1C2=Cc1cccc(NS(C)(=O)=O)c1` [Example 419], the Ki at glucocorticoid receptor and at human MR was less than 500 nM each time.
In the case of `N#Cc1ccc2c(c1)CCc1ccccc1/C2=C\c1ccc2[nH]c(=O)[nH]c2c1` [Example 456], the values for the inhibition constant Ki on glucocorticoid receptor and at human MR were less than 10000 nM and less than 500 nM, respectively.
As to `Cn1c(=O)[nH]c2cc(/C=C3/c4ccccc4CCc4cc(F)ccc43)ccc21` [Example 461], the Ki at glucocorticoid receptor and at human MR was less than 500 nM throughout.
Turning to `Cc1cccc2c1C(=Cc1ccc(NS(C)(=O)=O)cc1)c1ccccc1CC2` [Example 310], the Ki on glucocorticoid receptor is less than 1000 nM; on human MR, less than 500 nM.
In the same order, the values of `CS(=O)(=O)Nc1cccc(/C=C2/c3cc(Cl)ccc3COc3ccccc32)c1` [Example 728] are less than 500 nM and less than 500 nM.
